Source: patent publication US12269803B2, “Krüppel-like factor 15 (KLF15) small molecule agonists in kidney disease” (United States Government as represented by the Department …, priority 2020, dated 2025)
Values after ≈ are worked out from the molar mass of the structure shown. “Also recorded” adds a separate entry of the source.

Key:
human podocytes [1] = assay: Toxicity to human podocytes in primary screening assay (Renilla, cell viability); format: cell-based; settings: 1 μM, 24 hr
Protocol: (§1) After the synthesis of these novel analogues, a primary screening assay was conducted.

KLF15 reporter = KLF15 reporter activity in LPS-treated human podocytes (podocyte stress model); format: cell-based
Protocol: (§2) FIG. 10A-D show representative data illustrating the dose-response curve and EC50 (FIG. 10A), KLF15 reporter activity (FIG. 10B), and Renilla activity (cell viability) (FIG. 10C) in LPS-treated HP, and the therapeutic efficacy in abrogating albuminuria (biomarker of kidney disease) in LPS-treated mice (FIG. 10D).
as §1

KLF15 promoter [2] = assay: KLF15 reporter human podocyte assay (HTS, dose-response, primary screening); format: cell-based; settings: for KLF15 reporter activity, primary screening assay: 1 μM, 24 hr, vs DMSO; for maximal KLF15 reporter activity: dose escalation, at similar concentrations to DEX
Protocol: A stable reporter assay directed at KLF15 promoter region (4.3 kb region) was generated in human podocytes, a fragment of human KLF15 promoter upstream of the start codon, by amplifying and subcloning it into the firefly luciferase reporter plasmid (co-transfection with renilla to serve as internal controls). KLF15 promoter activity is measured as a ratio of luciferase to renilla activity. Using this reporter cell line, a cell-based HTS assay was developed using recently reported cell-seeding methodology specific to cultured podocytes (16).

human podocytes [3] = assay: Podocyte survival (Renilla, cell viability) after LPS treatment; format: cell-based; settings: LPS-treated human podocytes
Protocol: as §2, §1

LPS-treated mice = assay: LPS-induced albuminuria murine model; format: in vivo; settings: C57BL/6 mice, LPS 10 μg/g, subcutaneous minipump 3.5 μg/day for 48 hours, vs DMSO
Protocol: Referring to FIG. 10D, C57BL/6 mice were treated with lipopolysaccharide (LPS) at dose of 10 μg/g in two divided doses 24 hours apart intraperitoneally to induce podocyte injury and albuminuria.

[4] = Equilibrium solubility in aqueous buffers; format: physicochemical
Protocol: The pH 2.0 buffer was prepared by combining 50 mL of 0.2 M KCl with 150 mL of H2O, and then adjusting to pH 2.0 with 10 N HCl. […] The pH 7.4 buffer was prepared by combining 50 mL of 0.2 M KH2PO4 with 150 mL of H2O, and then adjusting to pH 7.4 with 10 N NaOH. At least 0.3 mg of powder for each lead compound was combined with 1 mL of each buffer to make a ≥0.3 mg/mL mixture. These samples were shaken on a Thermomixer® overnight at room temperature. The samples were then centrifuged for 10 minutes at 14,000 rpm. The supernatant was sampled and diluted in duplicate 10-, 100-, 1,000-, and 10,000-fold into a mixture of 1:1 buffer:acetonitrile (ACN) prior to analysis. […] Standard concentrations ranged from 1.0 μM to 0.3 nM.

[5] = Stability in pH 7.4 phosphate buffer; format: physicochemical; settings: 37° C., 1 μM
Protocol: Studies were carried out in pH 7.4 phosphate buffer. The buffer was prepared by combining 50 mL of 0.2 M KH2PO4 with 150 mL of H2O, and then adjusting to pH 7.4 with 10 N NaOH. The buffer was adjusted to pH 7.4 prior to initiating the experiments. […] Aliquots of the DMSO solutions were dosed into 0.5 mL of matrix, which had been pre-warmed to 37° C., at a final lead compound concentration of 1 μM. Individual tubes were dosed for each timepoint. The vials were kept in a benchtop Thermomixer for the duration of the experiment. At each time point (0, 30, 60, and 120 minutes), an equal volume of acetonitrile was added to the appropriate tubes. Samples were stored at 4° C. until the end of the experiment. After the final time point was sampled, the plate was mixed and then centrifuged at 3,000 rpm for 10 minutes. Aliquots of the supernatant were removed, diluted 1:1 into distilled water, and analyzed by LC-MS/MS.

[6] = system: Caco-2 cells (clone C2BBe1); assay: Caco-2 permeability; format: in vitro ADME; settings: for Papp AVG / Papp R1 / Recovery: 5 μM, 120 minutes; for Efflux Ratio / Significant Efflux: Caco-2; for Absorption Potential Classification: Caco-2, from Papp (A-to-B)
Protocol: Caco-2 cells (clone C2BBe1) were obtained from American Type Culture Collection (Manassas, VA). Cell monolayers were grown to confluence on collagen-coated, microporous membranes in 12-well assay plates. Details of the plates and their certification are shown below. The permeability assay buffer was Hanks' balanced salt solution containing 10 mM HEPES and 15 mM glucose at a pH of 7.4. The buffer in the receiver chamber also contained 1% bovine serum albumin. The dosing solution concentration was 5 μM of lead compound in the assay buffer. Cell monolayers were dosed on the apical side (A-to-B) or basolateral side (B-to-A) and incubated at 37° C. with 5% CO2 in a humidified incubator. Samples were taken from the donor and receiver chambers at 120 minutes. Each determination was performed in duplicate. The flux of lucifer yellow was also measured post-experimentally for each monolayer to ensure no damage was inflicted to the cell monolayers during the flux period. […] The apparent permeability (Papp) and percent recovery were calculated and provided.

human liver microsomes = assay: Stability in human liver microsomes
Protocol: Mixed-gender human liver microsomes (Lot #1010420) were purchased from XenoTech. The reaction mixture, minus NADPH, was prepared as described below. […] The control compound, testosterone, was run simultaneously with the lead compounds in a separate reaction. The reaction mixture (without cofactor) was equilibrated in a shaking water bath at 37° C. for 3 minutes. The reaction was initiated by the addition of the cofactor, and the mixture was incubated in a shaking water bath at 37° C. Aliquots (100 μL) were withdrawn at 0, 10, 20, 30, and 60 minutes. Each lead compound and testosterone samples were immediately combined with 400 μL of ice-cold 50/50 acetonitrile (ACN)/H2O containing 0.1% formic acid and internal standard to terminate the reaction. The samples were then mixed and centrifuged to precipitate proteins. All samples were assayed by LC-MS/MS using electrospray ionization. The peak area response ratio (PARR) to internal standard was compared to the PARR at time 0 to determine the percent remaining at each time point. Half-lives and clearance were calculated using GraphPad software, fitting to a single-phase exponential decay equation.

KLF15 promoter [7] = assay: KLF15 promoter activity in human podocytes, KLF15 agonist combined with dexamethasone; format: cell-based; settings: for KLF15 promoter activity, single agent: alone (DEX 1 μM), vs DMSO-treated human podocytes; for KLF15 promoter activity, combination with DEX: vs DEX 1 μM
[8] = pH 2, room temperature overnight
[9] = pH 4, room temperature overnight
[10] = pH 7.4, room temperature overnight
[11] = human liver microsomes, 1 μM, 37° C.

Row | Compound | toxicity to human podocytes (human podocytes [1]) | KLF15 reporter activity after LPS treatment (KLF15 reporter) | KLF15 reporter activity, primary screening assay (KLF15 promoter [2]) | maximal KLF15 reporter activity (KLF15 promoter [2]) | podocyte survival after LPS treatment (human podocytes [3]) | albuminuria (LPS-treated mice) | Solubility AVG [4, 8] | Solubility R1 [4, 8] | Solubility AVG [4, 9] | Solubility R1 [4, 9] | Solubility AVG [4, 10] | Solubility R1 [4, 10] | Percent Remaining 0 min [5] | Percent Remaining 30 min [5] | Percent Remaining 60 min [5] | Percent Remaining 120 min [5] | Papp AVG ([6]; A-to-B) | Papp R1 ([6]; A-to-B) | Recovery ([6]; A-to-B) | Papp AVG ([6]; B-to-A) | other results
1 | CSc1ccc(NC(=O)Nc2ccc(B3OC(C)(C)C(C)(C)O3)cc2)cc1 [BT412] | no observed toxicity | improved KLF15 reporter activity | significantly induced KLF15 reporter activity | higher maximal KLF15 reporter activity | improved; also recorded: improve podocyte survival |  |  |  |  |  |  |  |  |  |  |  |  |  |  |  | 
2 | CSc1ccc(NC(=O)c2ccc(O)cc2)cc1 [BT501] | no observed toxicity |  | significantly induced KLF15 reporter activity | higher maximal KLF15 reporter activity | improve podocyte survival | significantly reduced albuminuria | 97.7 µM (≈ 25.3 µg/mL) | 99.7 µM (≈ 25.9 µg/mL) | 153 µM (≈ 39.7 µg/mL) | 157 µM (≈ 40.7 µg/mL) | 269 µM (≈ 69.8 µg/mL) | 279 µM (≈ 72.4 µg/mL) | 100 | 88.4 | 92.1 | 87.7 | 35.5 10^−6 cm/s | 32.5 10^−6 cm/s | 66.7% | 35 10^−6 cm/s | Papp R1 ([6]; B-to-A): 32.5 10^−6 cm/s; Recovery ([6]; B-to-A): 81.7%; Efflux Ratio [6]: 0.987; Significant Efflux [6]: No (Significant Efflux: ER ≥ 2.0 and Papp (B-to-A) ≥ 1.0 × 10^−6 cm/s); Absorption Potential Classification [6]: High (Papp (A-to-B) ≥ 1.0 × 10^−6 cm/s: High); CLint (intrinsic clearance) (human liver microsomes; human, microsomes): 0.0387 mL/min/mg protein; Half-Life (human liver microsomes; human, microsomes): 35.8 min; KLF15 promoter activity, single agent (KLF15 promoter [7]): significantly induced KLF15 promoter activity; KLF15 promoter activity, combination with DEX (KLF15 promoter [7]; compound 0.5 μM + DEX 0.5 μM): synergistic effect
3 | CSc1ccc(NC(=O)Nc2ccc(C#N)cn2)cc1 [BT502] | no observed toxicity | improved KLF15 reporter activity | significantly induced KLF15 reporter activity | higher maximal KLF15 reporter activity | improved | significantly reduced albuminuria | 22.2 µM (≈ 6.31 µg/mL) | 21.8 µM (≈ 6.2 µg/mL) | 10.4 µM (≈ 2.96 µg/mL) | 10.4 µM (≈ 2.96 µg/mL) | 28.1 µM (≈ 7.99 µg/mL) | 28.4 µM (≈ 8.08 µg/mL) | 100 | 99.7 | 87 | 88.7 | 15.2 10^−6 cm/s | 14.6 10^−6 cm/s | 63.1% | 7.34 10^−6 cm/s | Papp R1 ([6]; B-to-A): 6.35 10^−6 cm/s; Recovery ([6]; B-to-A): 67.1%; Efflux Ratio [6]: 0.481; Significant Efflux [6]: No (Significant Efflux: ER ≥ 2.0 and Papp (B-to-A) ≥ 1.0 × 10^−6 cm/s); Absorption Potential Classification [6]: High (Papp (A-to-B) ≥ 1.0 × 10^−6 cm/s: High); Half-Life (human liver microsomes; [11]): 17 min; Percent Remaining 0 min (human liver microsomes; [11]): 100; Percent Remaining 10 min (human liver microsomes; [11]): 63.9; Percent Remaining 20 min (human liver microsomes; [11]): 45.3; Percent Remaining 30 min (human liver microsomes; [11]): 29.6; Percent Remaining 60 min (human liver microsomes; [11]): 8.53; CLint (intrinsic clearance) (human liver microsomes; human liver microsomes, Clint = k/P): 0.0813 mL/min/mg protein; KLF15 promoter activity, single agent (KLF15 promoter [7]): significantly induced KLF15 promoter activity; KLF15 promoter activity, combination with DEX (KLF15 promoter [7]; compound 100 nM + DEX 0.5 μM): synergistic effect; KLF15 promoter activity, combination with DEX (KLF15 promoter [7]; compound 0.5 μM + DEX 0.5 μM): synergistic effect
4 | CC1(C)OB(c2ccc(C(N)=NO)cc2)OC1(C)C [BT506] | Toxicity |  |  |  |  |  |  |  |  |  |  |  |  |  |  |  |  |  |  |  | 
5 | CSc1ccc(-c2nc(-c3ccc(O)cc3)no2)cc1 [BT514] | no observed toxicity | improved KLF15 reporter activity | significantly induced KLF15 reporter activity |  | improved; also recorded: improve podocyte survival |  |  |  |  |  |  |  |  |  |  |  |  |  |  |  | 
6 | C[C@@H]1C[C@H]2[C@@H]3CCC4=CC(=O)C=C[C@]4(C)[C@@]3(F)[C@@H](O)C[C@]2(C)[C@@]1(O)C(=O)CO [DEX, dexamethasone, reference compound] |  |  |  |  |  |  |  |  |  |  |  |  |  |  |  |  |  |  |  |  | EC50 (KLF15 promoter [2]; dose-response curve, human podocytes, luciferase/renilla): 5.41 µM
